Measured values reported in PubChem BioAssay (NCI).
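Test compounds were applied to cells in 96-well plates for 48 hours at 5 doses. TGI: total growth inhibition.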

Legend:
Experiment in all cases: NCI anticancer screen, dose series, 48 h
HOP-92 NSCLC = test system: HOP-92 NSCLC
SN12C renal = test system: SN12C renal
SR leukemia = test system: SR leukemia
SW-620 colon = test system: SW-620 colon
NCI-H460 lung = test system: NCI-H460 lung
BT-549 breast = test system: BT-549 breast
IGROV1 ovarian = test system: IGROV1 ovarian
MCF7 breast = test system: MCF7 breast
M14 melanoma = test system: M14 melanoma
SK-MEL-2 melanoma = test system: SK-MEL-2 melanoma
NCI/ADR-RES ovarian = test system: NCI/ADR-RES ovarian
HL-60(TB) leukemia = test system: HL-60(TB) leukemia
SK-OV-3 ovarian = test system: SK-OV-3 ovarian
OVCAR-4 ovarian = test system: OVCAR-4 ovarian
OVCAR-8 ovarian = test system: OVCAR-8 ovarian
OVCAR-3 ovarian = test system: OVCAR-3 ovarian
RPMI-8226 leukemia = test system: RPMI-8226 leukemia
MDA-MB-231 breast = test system: MDA-MB-231 breast
UACC-62 melanoma = test system: UACC-62 melanoma
NCI-H226 lung = test system: NCI-H226 lung

Structure (SMILES) | TGI (HOP-92 NSCLC) [µM] | TGI (SN12C renal) [µM] | TGI (SR leukemia) [µM] | TGI (SW-620 colon) [µM] | TGI (NCI-H460 lung) [µM] | TGI (BT-549 breast) [µM] | TGI (IGROV1 ovarian) [µM] | TGI (MCF7 breast) [µM] | TGI (M14 melanoma) [µM] | TGI (SK-MEL-2 melanoma) [µM] | TGI (NCI/ADR-RES ovarian) [µM] | TGI (HL-60(TB) leukemia) [µM] | TGI (SK-OV-3 ovarian) [µM] | TGI (OVCAR-4 ovarian) [µM] | TGI (OVCAR-8 ovarian) [µM] | TGI (OVCAR-3 ovarian) [µM] | TGI (RPMI-8226 leukemia) [µM] | TGI (MDA-MB-231 breast) [µM] | TGI (UACC-62 melanoma) [µM] | TGI (NCI-H226 lung) [µM]
Cc1nn(C(=O)c2ccncc2)c2c1C(c1ccccc1O)SC(N)=N2 (stereo not given) | > 10 | > 10 | > 10 | > 10 | > 10 | > 10 | > 10 | > 10 | > 10 | > 10 | > 10 | > 10 | > 10 | > 10 | > 10 | > 10 | > 10 | > 10 | > 10 | > 10
CC[C@]12C=CCN3CCC4(c5cc(N=Nc6ccc([N+](=O)[O-])cc6)c(OC)cc5N(C)[C@H]4[C@@](O)(C(=O)OC)[C@@H]1OC(C)=O)[C@@H]32 (stereo not given in full) | 8.62 | 59.8 | 32 | > 100 | > 100 | > 100 | 33.2 | > 100 | 40.5 | 43 | 42.2 | 28.1 | > 100 | > 100 | > 100 | 16.8 | 46.1 | 35.9 | > 100 | 56.5
CCOC(=O)C(SCCO)C(C(=O)OCC)n1cc(C)c(=O)[nH]c1=O (stereo not given) | 71.9 | > 45.8 | 35.5 | > 43.1 | > 100 | > 85.1 | > 65.4 | 43.5 | 25 | 51.1 | > 86.6 | 4.88 | > 100 | > 74.7 | > 62.7 | 51.7 | 44.4 | 48.9 | 40 | > 61.4
c1ccc(-c2cc(-c3cc(-c4ccccc4)no3)on2)cc1 | > 100 | > 100 | 31.3 | > 100 | > 100 | > 100 | > 100 | > 100 | > 100 | > 100 | > 100 | > 100 | 89.9 | 85.9 | 30.2 | > 100 | > 100 | 74.8 | > 100 | > 100
CN(CCNC(=O)c1cc(-c2ccccc2)nc2ccccc12)CCNC(=O)c1cc(-c2ccccc2)nc2ccccc12 | 14.7 | > 100 | 7.63 | 24.9 | > 100 | > 100 | > 100 | 42 | 4.66 | 24.9 | > 100 | 24.9 | > 100 | > 100 | > 100 | > 100 | > 100 | > 100 | 39.5 | 55.5
CC(=O)OCC1OC(OC2CC3C(C)(C)C(=O)CC[C@]3(C)C3CC[C@]45C[C@]4(CCC5[C@@H](C)CC(O)C(O)C(C)(C)O)[C@]23C)C(O)C(O)C1O (stereo not given in full) | 13.7 | 26.4 | 16.9 | 26 | 27.1 | 25.9 | 23.2 | 16.7 | 22.2 | 17.1 | 32.8 | 5.05 | 28.9 | 25.7 | 26.5 | 25.4 | 17.2 | 19.5 | 22.5 | 30.6
CCCCN1C(=O)C[C@H]2[C@@H]3CCc4cc(OCCN5CCCC5)ccc4[C@H]3CC[C@]2(C)C1=O | 18.3 | 30.2 | 23.6 | 25.1 | 21.3 | 26.6 | 30.7 | 15.6 | 3.92 | 19.2 | 38 | > 23.2 | 27.4 | 27.6 | 30.8 | 23.7 | 9.53 | 15.7 | 10.4 | 21.4
Nc1nc(Cl)cc(NCC2(CO)CCC(OCc3ccccc3)C2)n1 (stereo not given) | 37 | 93 | 80.2 | > 100 | > 100 | 80.1 | > 100 | 89.1 | 61 | 77.3 | 25 | 86.8 | 62.4 | 65.2 | > 100 | > 100 | > 100 | 42.8 | > 100 | 84.1
